Reference: the NIST ThermoML archive (doi:10.1021/je200721d)

Assay: xn = mol fraction of the nth substance listed
Settings: Liquid, Vibrating tube method

CCCCCCCCCC [decane] + CCCCCC
Settings | mass density [kg/m3]
343.06 K, 22000 kPa, x2 = 0.7524 | 665.93
343.06 K, 23000 kPa, x2 = 0.2185 | 702.17
343.06 K, 23000 kPa, x2 = 0.7524 | 666.87
343.06 K, 24000 kPa, x2 = 0.2185 | 702.97
343.06 K, 24000 kPa, x2 = 0.7524 | 667.79
343.06 K, 25000 kPa, x2 = 0.2185 | 703.79
343.06 K, 25000 kPa, x2 = 0.7524 | 668.69
343.08 K, 1000 kPa, x2 = 0.4968 | 663.07
343.08 K, 2000 kPa, x2 = 0.4968 | 664.35
343.08 K, 3000 kPa, x2 = 0.4968 | 665.55
343.08 K, 4000 kPa, x2 = 0.4968 | 666.8
343.08 K, 5000 kPa, x2 = 0.4968 | 667.97
343.08 K, 6000 kPa, x2 = 0.4968 | 669.14
343.08 K, 7000 kPa, x2 = 0.4968 | 670.28
343.08 K, 8000 kPa, x2 = 0.4968 | 671.4
343.08 K, 9000 kPa, x2 = 0.4968 | 672.48
343.08 K, 10000 kPa, x2 = 0.4968 | 673.55
343.08 K, 11000 kPa, x2 = 0.4968 | 674.64
343.08 K, 12000 kPa, x2 = 0.4968 | 675.64
343.08 K, 13000 kPa, x2 = 0.4968 | 676.63
343.08 K, 14000 kPa, x2 = 0.4968 | 677.63
343.08 K, 15000 kPa, x2 = 0.4968 | 678.63
343.08 K, 16000 kPa, x2 = 0.4968 | 679.61
343.08 K, 17000 kPa, x2 = 0.4968 | 680.59
343.08 K, 18000 kPa, x2 = 0.4968 | 681.52
343.08 K, 19000 kPa, x2 = 0.4968 | 682.46
343.08 K, 20000 kPa, x2 = 0.4968 | 683.4
343.08 K, 21000 kPa, x2 = 0.4968 | 684.32
343.08 K, 22000 kPa, x2 = 0.4968 | 685.22
343.08 K, 23000 kPa, x2 = 0.4968 | 686.1
343.08 K, 24000 kPa, x2 = 0.4968 | 686.98
343.08 K, 25000 kPa, x2 = 0.4968 | 687.83
352.75 K, 1000 kPa, x2 = 0.8991 | 617.37
352.75 K, 2000 kPa, x2 = 0.8991 | 618.91
352.75 K, 3000 kPa, x2 = 0.8991 | 620.43
352.75 K, 4000 kPa, x2 = 0.8991 | 621.91
352.75 K, 5000 kPa, x2 = 0.8991 | 623.4
352.75 K, 6000 kPa, x2 = 0.8991 | 624.85
352.75 K, 7000 kPa, x2 = 0.8991 | 626.29
352.75 K, 8000 kPa, x2 = 0.8991 | 627.7
352.75 K, 9000 kPa, x2 = 0.8991 | 629.09
352.75 K, 10000 kPa, x2 = 0.8991 | 630.46
352.75 K, 11000 kPa, x2 = 0.8991 | 631.8
352.75 K, 12000 kPa, x2 = 0.8991 | 633.12
352.75 K, 13000 kPa, x2 = 0.8991 | 634.41
352.75 K, 14000 kPa, x2 = 0.8991 | 635.69
352.75 K, 15000 kPa, x2 = 0.8991 | 636.93
352.75 K, 16000 kPa, x2 = 0.8991 | 638.16
352.75 K, 17000 kPa, x2 = 0.8991 | 639.35
352.75 K, 18000 kPa, x2 = 0.8991 | 640.52
352.75 K, 19000 kPa, x2 = 0.8991 | 641.66
352.75 K, 20000 kPa, x2 = 0.8991 | 642.78
352.75 K, 21000 kPa, x2 = 0.8991 | 643.87
352.75 K, 22000 kPa, x2 = 0.8991 | 644.93
352.75 K, 23000 kPa, x2 = 0.8991 | 645.98
352.75 K, 24000 kPa, x2 = 0.8991 | 646.99
352.75 K, 25000 kPa, x2 = 0.8991 | 647.98
352.99 K, 1000 kPa, x2 = 0.0456 | 682.21
352.99 K, 1000 kPa, x2 = 0.7524 | 632.44
352.99 K, 2000 kPa, x2 = 0.0456 | 683.34
352.99 K, 2000 kPa, x2 = 0.7524 | 633.97
352.99 K, 3000 kPa, x2 = 0.0456 | 684.46
352.99 K, 3000 kPa, x2 = 0.7524 | 635.47
352.99 K, 4000 kPa, x2 = 0.0456 | 685.57
352.99 K, 4000 kPa, x2 = 0.7524 | 636.89
352.99 K, 5000 kPa, x2 = 0.0456 | 686.64
352.99 K, 5000 kPa, x2 = 0.7524 | 638.37
352.99 K, 6000 kPa, x2 = 0.0456 | 687.71
352.99 K, 6000 kPa, x2 = 0.7524 | 639.77
352.99 K, 7000 kPa, x2 = 0.0456 | 688.77
352.99 K, 7000 kPa, x2 = 0.7524 | 641.14
352.99 K, 8000 kPa, x2 = 0.0456 | 689.81
352.99 K, 8000 kPa, x2 = 0.7524 | 642.48
352.99 K, 9000 kPa, x2 = 0.0456 | 690.83
352.99 K, 9000 kPa, x2 = 0.7524 | 643.77
352.99 K, 10000 kPa, x2 = 0.0456 | 691.84
352.99 K, 10000 kPa, x2 = 0.7524 | 645.03
352.99 K, 11000 kPa, x2 = 0.0456 | 692.84
352.99 K, 11000 kPa, x2 = 0.7524 | 646.28
352.99 K, 12000 kPa, x2 = 0.0456 | 693.82
352.99 K, 12000 kPa, x2 = 0.7524 | 647.51
352.99 K, 13000 kPa, x2 = 0.0456 | 694.79
352.99 K, 13000 kPa, x2 = 0.7524 | 648.71
352.99 K, 14000 kPa, x2 = 0.0456 | 695.75
352.99 K, 14000 kPa, x2 = 0.7524 | 649.88
352.99 K, 15000 kPa, x2 = 0.0456 | 696.69
352.99 K, 15000 kPa, x2 = 0.7524 | 651.03
352.99 K, 16000 kPa, x2 = 0.0456 | 697.62
352.99 K, 16000 kPa, x2 = 0.7524 | 652.16
352.99 K, 17000 kPa, x2 = 0.0456 | 698.54
352.99 K, 17000 kPa, x2 = 0.7524 | 653.28
352.99 K, 18000 kPa, x2 = 0.0456 | 699.44
352.99 K, 18000 kPa, x2 = 0.7524 | 654.35
352.99 K, 19000 kPa, x2 = 0.0456 | 700.33
